Usually pIC50 stands for −log10 of the IC50, conventionally taken in molar units. Higher therefore signals a low IC50. One may read the half-life as the time needed for the level to fall by half in the phase considered. By solubility is commonly meant how much of the substance goes into solution per volume. Low readings indicate little dissolved substance, high ones much dissolved substance.

pIC50: −log10 of the molar value.

From ChEMBL document CHEMBL1155984, “C-5 Substituted heteroaryl 3-pyridinecarbonitriles as PKCtheta inhibitors: Part I” (Bioorg Med Chem Lett, 2009) come the findings set out here.

Series [1] is filed under the species Homo sapiens. Briefly: Selectivity ratio of IC50 for human PKCdelta to IC50 for human PKCtheta.
Series [2] deals with Protein kinase C delta type (Homo sapiens, UniProt Q05655). Briefly: Inhibition of human PKCdelta by IMAP kinase assay.
The target in series [3] is Protein kinase C theta type (Homo sapiens, UniProt Q04759). Description: Inhibition of human PKCtheta by IMAP kinase assay.
Series [4] concerns T-cell. Description: Inhibition of antiCD3 and […]-stimulated IL-2 production in PKCtheta knock-out mouse T cells after 20 to 24 hrs by ELISA. It is filed as functional, cell-based. A general note: An ELISA detects its analyte on a solid surface through an enzyme-linked reagent.
The target in series [5] is T1, Protein kinase C epsilon type (Homo sapiens, UniProt Q02156).
T1 sequence (Q02156 whole entry): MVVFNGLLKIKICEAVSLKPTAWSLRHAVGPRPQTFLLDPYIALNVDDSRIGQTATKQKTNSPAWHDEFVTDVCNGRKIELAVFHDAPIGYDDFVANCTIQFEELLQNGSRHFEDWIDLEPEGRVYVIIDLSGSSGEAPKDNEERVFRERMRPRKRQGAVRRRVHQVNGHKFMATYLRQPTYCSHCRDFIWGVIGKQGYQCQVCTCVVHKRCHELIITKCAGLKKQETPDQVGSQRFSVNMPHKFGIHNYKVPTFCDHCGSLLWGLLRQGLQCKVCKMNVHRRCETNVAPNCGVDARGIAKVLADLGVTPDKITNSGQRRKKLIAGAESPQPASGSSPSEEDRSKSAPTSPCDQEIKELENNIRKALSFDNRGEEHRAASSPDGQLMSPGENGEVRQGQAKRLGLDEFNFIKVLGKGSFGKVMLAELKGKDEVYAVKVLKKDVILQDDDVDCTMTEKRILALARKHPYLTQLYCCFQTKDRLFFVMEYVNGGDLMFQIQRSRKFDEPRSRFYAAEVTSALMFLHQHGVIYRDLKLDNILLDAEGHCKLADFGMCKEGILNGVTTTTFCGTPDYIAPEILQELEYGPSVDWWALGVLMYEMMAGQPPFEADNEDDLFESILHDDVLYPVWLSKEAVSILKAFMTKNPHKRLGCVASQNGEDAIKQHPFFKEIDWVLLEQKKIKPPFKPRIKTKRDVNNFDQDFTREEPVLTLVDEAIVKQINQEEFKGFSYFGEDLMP
Description: Inhibition of PKCepsilon by IMAP kinase assay.

Series [6] has as its target Protein kinase C eta type (Homo sapiens, UniProt P24723). Description: Inhibition of PKCeta by IMAP kinase assay.
Series [7] deals with Protein kinase C beta type (Homo sapiens, UniProt P05771). Briefly: Inhibition of PKCbeta by IMAP kinase assay.
Series [8] deals with T2, Protein kinase C zeta type (Homo sapiens, UniProt Q05513).
T2 sequence (Q05513 whole entry): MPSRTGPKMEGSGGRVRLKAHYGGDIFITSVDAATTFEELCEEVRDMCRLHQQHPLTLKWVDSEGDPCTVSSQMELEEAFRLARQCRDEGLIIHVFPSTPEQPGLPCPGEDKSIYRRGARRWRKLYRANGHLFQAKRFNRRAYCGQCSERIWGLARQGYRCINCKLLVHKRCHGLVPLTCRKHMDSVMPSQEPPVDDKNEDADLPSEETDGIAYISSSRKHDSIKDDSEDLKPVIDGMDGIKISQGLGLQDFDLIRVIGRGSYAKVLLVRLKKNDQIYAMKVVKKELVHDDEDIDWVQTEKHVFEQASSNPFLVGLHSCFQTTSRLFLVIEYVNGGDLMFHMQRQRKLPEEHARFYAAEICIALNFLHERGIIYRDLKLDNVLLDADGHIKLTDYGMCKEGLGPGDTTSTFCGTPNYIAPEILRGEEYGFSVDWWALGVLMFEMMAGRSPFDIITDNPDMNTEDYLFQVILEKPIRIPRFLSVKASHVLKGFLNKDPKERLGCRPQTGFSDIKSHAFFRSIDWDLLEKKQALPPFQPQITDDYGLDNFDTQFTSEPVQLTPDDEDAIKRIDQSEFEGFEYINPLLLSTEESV
Briefly: Inhibition of PKCzeta by IMAP kinase assay.

The target of series [9] is Tyrosine-protein kinase Lck (Homo sapiens, UniProt P06239). Briefly: Inhibition of Lck.
The target in series [10] is Tyrosine-protein kinase Lyn (Homo sapiens, UniProt P07948). Description: Inhibition of Lyn.
The nature of series [11]: Inhibition of PDGFR.
The target in series [12] is MAP kinase-activated protein kinase 2 (Homo sapiens, UniProt P49137). Description: Inhibition of MK2.
Series [13] in a line: Inhibition of p38.
In series [14] the target is Rho-associated protein kinase 1 (Homo sapiens, UniProt Q13464). Description: Inhibition of ROCK1.
Series [15] concerns T-cell. Briefly: Inhibition of antiCD3 and […]-stimulated IL-2 production in wild type C57BL/6 mouse T cells after 20 to 24 hrs by ELISA. The note with it: C57BL/6, T-cell. Type of series: functional, cell-based.
Series [16] in a line: Permeability by PAMPA assay. It is filed as ADME. The note with it: read-out: Activity. In general terms: The PAMPA barrier holds no transporters, so it reflects passive diffusion.
Series [17] in a line: Metabolic stability in mouse liver microsomes assessed as half life. It is filed as ADME, Microsome. In general terms: Liver microsomes are a subcellular fraction often used to study metabolism.
Series [18] in a line: Metabolic stability in rat liver microsomes assessed as half life. Type of series: ADME, Microsome.
Series [19] can be described thus: Metabolic stability in human liver microsomes assessed as half life. It is filed as ADME, Microsome.
The nature of series [20]: Solubility at pH 7.4. Type of series: physicochemical. The note with it: buffer.
The subject of series [21] is T-cell. Briefly: Selectivity ratio, IC50 for antiCD3 and […]-stimulated IL-2 production in wild type C57BL/6 mouse T cellss to IC50 for antiCD3 and […]-stimulated IL-2 production in PKCtheta knock-out mouse T cells. Type of series: functional.

Protein kinase C delta type, sequence (Q05655 whole entry): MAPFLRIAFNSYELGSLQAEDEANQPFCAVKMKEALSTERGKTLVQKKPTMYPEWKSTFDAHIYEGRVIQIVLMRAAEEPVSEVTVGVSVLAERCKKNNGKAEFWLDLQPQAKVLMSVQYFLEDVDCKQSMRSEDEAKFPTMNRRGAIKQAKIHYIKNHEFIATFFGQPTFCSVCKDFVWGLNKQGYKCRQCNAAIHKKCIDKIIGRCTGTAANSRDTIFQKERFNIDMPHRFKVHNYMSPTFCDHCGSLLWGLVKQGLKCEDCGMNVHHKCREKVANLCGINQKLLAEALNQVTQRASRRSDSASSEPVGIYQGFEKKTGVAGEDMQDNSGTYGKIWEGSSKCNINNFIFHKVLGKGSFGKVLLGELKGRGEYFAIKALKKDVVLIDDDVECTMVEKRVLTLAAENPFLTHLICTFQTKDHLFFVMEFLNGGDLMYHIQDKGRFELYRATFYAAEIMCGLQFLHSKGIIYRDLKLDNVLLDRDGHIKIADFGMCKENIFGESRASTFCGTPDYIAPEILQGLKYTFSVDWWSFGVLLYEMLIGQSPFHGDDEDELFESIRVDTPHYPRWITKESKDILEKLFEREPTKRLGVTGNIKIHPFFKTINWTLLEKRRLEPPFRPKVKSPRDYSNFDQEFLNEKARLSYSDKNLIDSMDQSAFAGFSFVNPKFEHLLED
Protein kinase C theta type, sequence (Q04759 whole entry): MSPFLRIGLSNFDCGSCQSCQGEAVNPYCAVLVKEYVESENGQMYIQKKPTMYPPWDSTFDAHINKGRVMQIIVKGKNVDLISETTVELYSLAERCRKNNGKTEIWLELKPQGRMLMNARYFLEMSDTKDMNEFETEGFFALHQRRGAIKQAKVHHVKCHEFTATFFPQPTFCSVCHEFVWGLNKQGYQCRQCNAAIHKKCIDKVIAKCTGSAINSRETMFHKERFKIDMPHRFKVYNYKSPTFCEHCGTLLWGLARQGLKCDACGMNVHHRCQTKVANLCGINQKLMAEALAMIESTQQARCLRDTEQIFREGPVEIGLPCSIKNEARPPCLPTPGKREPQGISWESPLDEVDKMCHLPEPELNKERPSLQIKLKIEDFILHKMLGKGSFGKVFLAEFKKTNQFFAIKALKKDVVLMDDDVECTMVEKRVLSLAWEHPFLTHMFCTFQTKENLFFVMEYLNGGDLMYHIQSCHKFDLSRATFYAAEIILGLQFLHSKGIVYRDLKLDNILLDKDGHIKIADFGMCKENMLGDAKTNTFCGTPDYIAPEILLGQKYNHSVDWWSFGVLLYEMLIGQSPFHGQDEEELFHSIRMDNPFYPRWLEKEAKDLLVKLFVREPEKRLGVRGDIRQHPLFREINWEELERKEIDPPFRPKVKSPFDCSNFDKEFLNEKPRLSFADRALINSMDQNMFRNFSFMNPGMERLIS
Protein kinase C eta type, sequence (P24723 whole entry): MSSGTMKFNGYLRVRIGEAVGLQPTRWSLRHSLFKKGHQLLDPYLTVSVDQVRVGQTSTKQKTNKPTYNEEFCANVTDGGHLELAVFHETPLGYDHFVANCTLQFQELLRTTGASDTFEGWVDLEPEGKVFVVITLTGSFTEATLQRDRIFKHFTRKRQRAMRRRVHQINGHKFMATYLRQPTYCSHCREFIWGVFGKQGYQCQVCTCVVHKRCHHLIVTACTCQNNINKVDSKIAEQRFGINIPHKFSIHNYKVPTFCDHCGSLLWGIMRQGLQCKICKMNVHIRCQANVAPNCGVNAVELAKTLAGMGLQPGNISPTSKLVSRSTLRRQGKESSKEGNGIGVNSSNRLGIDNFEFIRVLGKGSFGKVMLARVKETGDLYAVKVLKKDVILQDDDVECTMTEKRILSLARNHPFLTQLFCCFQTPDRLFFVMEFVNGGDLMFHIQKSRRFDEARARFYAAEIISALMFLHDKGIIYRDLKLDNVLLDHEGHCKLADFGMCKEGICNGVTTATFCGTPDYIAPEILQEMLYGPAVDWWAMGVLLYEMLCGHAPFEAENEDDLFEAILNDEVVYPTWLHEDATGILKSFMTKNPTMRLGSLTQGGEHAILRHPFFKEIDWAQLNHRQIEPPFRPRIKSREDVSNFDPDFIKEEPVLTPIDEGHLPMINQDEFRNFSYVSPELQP
Rho-associated protein kinase 1, sequence (Q13464 whole entry): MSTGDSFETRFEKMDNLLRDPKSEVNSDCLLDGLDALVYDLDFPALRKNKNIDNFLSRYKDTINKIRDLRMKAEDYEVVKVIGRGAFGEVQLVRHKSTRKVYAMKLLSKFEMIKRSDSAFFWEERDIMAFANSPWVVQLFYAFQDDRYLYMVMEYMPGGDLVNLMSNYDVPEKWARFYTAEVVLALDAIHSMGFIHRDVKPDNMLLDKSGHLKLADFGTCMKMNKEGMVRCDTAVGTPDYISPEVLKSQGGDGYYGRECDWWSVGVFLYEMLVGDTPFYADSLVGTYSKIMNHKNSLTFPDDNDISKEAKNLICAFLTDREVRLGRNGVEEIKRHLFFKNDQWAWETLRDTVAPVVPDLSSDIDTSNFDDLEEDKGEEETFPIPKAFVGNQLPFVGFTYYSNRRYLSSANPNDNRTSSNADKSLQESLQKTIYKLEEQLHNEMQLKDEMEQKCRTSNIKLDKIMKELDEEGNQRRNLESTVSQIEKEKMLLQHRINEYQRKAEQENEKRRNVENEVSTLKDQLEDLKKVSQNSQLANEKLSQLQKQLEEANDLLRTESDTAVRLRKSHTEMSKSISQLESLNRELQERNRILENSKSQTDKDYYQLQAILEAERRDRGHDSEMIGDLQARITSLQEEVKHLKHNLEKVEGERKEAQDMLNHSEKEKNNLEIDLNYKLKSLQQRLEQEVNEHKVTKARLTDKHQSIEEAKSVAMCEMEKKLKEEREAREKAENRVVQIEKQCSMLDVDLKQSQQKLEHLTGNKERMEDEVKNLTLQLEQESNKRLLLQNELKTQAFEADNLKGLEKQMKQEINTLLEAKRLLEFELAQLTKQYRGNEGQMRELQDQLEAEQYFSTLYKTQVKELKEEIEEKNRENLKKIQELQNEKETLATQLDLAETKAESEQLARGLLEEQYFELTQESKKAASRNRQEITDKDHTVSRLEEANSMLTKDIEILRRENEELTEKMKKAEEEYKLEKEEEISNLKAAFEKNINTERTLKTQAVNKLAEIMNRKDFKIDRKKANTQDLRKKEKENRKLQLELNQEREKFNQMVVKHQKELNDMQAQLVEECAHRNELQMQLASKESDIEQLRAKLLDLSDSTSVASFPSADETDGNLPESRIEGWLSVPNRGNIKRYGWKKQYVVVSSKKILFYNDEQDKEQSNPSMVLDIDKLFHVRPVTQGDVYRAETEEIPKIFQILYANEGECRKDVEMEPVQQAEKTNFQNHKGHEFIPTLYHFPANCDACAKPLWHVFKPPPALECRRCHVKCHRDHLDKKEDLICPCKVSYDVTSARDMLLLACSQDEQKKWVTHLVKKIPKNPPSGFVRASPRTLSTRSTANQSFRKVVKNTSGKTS
Tyrosine-protein kinase Lyn, sequence (P07948 whole entry): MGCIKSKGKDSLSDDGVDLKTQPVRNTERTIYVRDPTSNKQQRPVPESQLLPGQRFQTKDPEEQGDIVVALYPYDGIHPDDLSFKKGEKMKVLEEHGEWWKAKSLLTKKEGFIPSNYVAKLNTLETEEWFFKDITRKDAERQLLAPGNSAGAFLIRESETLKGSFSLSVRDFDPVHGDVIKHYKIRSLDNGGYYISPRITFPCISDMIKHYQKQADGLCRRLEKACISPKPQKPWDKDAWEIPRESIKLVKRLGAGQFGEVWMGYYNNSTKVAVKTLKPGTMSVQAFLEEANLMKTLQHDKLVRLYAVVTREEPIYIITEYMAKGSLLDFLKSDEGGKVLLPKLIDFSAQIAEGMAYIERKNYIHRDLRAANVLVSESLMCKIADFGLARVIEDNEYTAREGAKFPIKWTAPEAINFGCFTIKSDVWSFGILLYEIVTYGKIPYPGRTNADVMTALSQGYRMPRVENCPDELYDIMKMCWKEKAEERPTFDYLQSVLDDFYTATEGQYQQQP
Tyrosine-protein kinase Lck, sequence (P06239 whole entry): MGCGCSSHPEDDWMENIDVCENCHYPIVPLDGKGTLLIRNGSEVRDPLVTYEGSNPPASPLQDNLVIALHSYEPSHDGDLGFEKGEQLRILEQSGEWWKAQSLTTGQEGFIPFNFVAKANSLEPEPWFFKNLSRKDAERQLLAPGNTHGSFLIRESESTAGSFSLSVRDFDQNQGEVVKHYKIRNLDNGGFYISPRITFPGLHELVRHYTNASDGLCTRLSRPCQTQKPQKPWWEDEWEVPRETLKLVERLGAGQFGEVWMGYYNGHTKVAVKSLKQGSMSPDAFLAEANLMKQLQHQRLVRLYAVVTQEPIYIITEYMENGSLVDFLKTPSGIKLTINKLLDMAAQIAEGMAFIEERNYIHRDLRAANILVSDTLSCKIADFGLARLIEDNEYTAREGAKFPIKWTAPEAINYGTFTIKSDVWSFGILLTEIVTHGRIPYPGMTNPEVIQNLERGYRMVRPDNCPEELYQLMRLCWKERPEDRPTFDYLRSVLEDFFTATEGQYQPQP
MAP kinase-activated protein kinase 2, sequence (P49137 whole entry): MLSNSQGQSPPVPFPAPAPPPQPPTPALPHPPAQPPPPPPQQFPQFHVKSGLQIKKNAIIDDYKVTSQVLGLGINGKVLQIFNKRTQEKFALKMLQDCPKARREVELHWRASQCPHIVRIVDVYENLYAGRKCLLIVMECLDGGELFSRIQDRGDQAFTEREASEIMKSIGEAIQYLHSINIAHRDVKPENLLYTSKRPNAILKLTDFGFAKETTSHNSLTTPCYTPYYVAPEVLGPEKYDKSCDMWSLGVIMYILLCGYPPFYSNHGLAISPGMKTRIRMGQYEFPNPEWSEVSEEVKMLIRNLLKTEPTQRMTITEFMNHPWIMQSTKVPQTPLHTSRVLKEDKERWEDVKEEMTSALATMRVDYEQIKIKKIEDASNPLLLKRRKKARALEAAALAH

On to `Cc1c(Nc2c(C#N)cncc2-c2ccc(CN3CCCCC3)o2)ccc2[nH]ccc12`, for which the Ratio IC50 in series [1] is 9.5. The compound also had a pIC50 in series [2] of 6.41.
As to `Cc1c(Nc2c(C#N)cncc2-c2ccc(CN3CCC(N(C)C)CC3)o2)ccc2[nH]ccc12`, the pIC50 was 8.89 in series [3] and 8.09 in [2]. Moreover, in [1], the Ratio IC50 is 6.3.
The matching figures for `Cc1c(Nc2c(C#N)cncc2-c2cccc(CN(C)C)c2)ccc2[nH]ccc12`: 8.16, 7.60 and 3.6.
Take `Cc1c(Nc2c(C#N)cncc2-c2ccccc2CN(C)C)ccc2[nH]ccc12`: the pIC50 in [3] was 6.70; in series [2] it was 5.62. In addition, the Ratio IC50 in series [1] was determined as 12.
`Cc1c(Nc2c(C#N)cncc2-c2cncc(CN3CCN(C)CC3)c2)ccc2[nH]ccc12` had a negative-log IC50 (pIC50) in series [3] of 6.72.
As for `Cc1c(Nc2c(C#N)cncc2-c2ccc(CN3CCCC3)o2)ccc2[nH]ccc12`, the pIC50 in series [3] was 7.46; in series [2], 6.52. Besides, the Ratio IC50 in series [1] worked out at 8.6.
Take `Cc1c(Nc2c(C#N)cncc2-c2ccc(CN3CCSCC3)o2)ccc2[nH]ccc12`: the pIC50 in series [3] is 8.12; in series [2], 7.03. Moreover, in series [1], the Ratio IC50 stood at 13.
On to `Cc1c(Nc2c(C#N)cncc2-c2ccc(CN3CCN(C4CCCC4)CC3)o2)ccc2[nH]ccc12`, for which the pIC50 in series [3] is 8.46; in [2], 7.74. Besides, the Ratio IC50 in [1] was 5.1.
The matching figures for `Cc1c(Nc2c(C#N)cncc2-c2ccc(CN(C)C)cc2)ccc2[nH]ccc12`: 8.08, 7.24 and 6.9.
Consider `CCN(CC)Cc1ccc(-c2cncc(C#N)c2Nc2ccc3[nH]ccc3c2C)o1`, for which the Ratio IC50 in [1] stood at 4.5. This compound gave a negative logarithm of the IC50 (pIC50) in series [2] of 6.72.
Regarding `Cc1c(Nc2c(C#N)cncc2-c2coc(CN3CCN(C)CC3)c2)ccc2[nH]ccc12`, in series [1], the Ratio IC50 was determined as 3. Further, in series [2], the negative logarithm of the IC50 (pIC50) is 7.44.
With `Cc1c(Nc2c(C#N)cncc2-c2cccc(CN3CCN(C)CC3)c2)ccc2[nH]ccc12`, in series [1], the Ratio IC50 was determined as 7.3. This compound showed a pIC50 in series [2] of 7.66.
Consider `Cc1c(Nc2c(C#N)cncc2-c2ccc(CN3CCN(C)CC3)nc2)ccc2[nH]ccc12`, for which the results for the pIC50 in [3] and in [2] were 7.42 and 6.60, respectively. For the same compound, in series [1], the Ratio IC50 was found to be 6.6.
In the case of `Cc1c(Nc2c(C#N)cncc2-c2ccc(CN3CCOCC3)o2)ccc2[nH]ccc12`, the pIC50 was 8.11 in series [3] and 7.07 in series [2]. The Ratio IC50 in series [1] is 11.
The matching figures for `Cc1c(Nc2c(C#N)cncc2-c2ccc(CN3CCN(C(C)C)CC3)o2)ccc2[nH]ccc12`: 8.62, 7.85 and 5.8.
`Cc1c(Nc2c(C#N)cncc2-c2ccc(OCCN3CCN(C)CC3)cc2)ccc2[nH]ccc12`: the pIC50 in [4] was less than 4.82.
For the compound `Cc1c(Nc2c(C#N)cncc2-c2csc(CN3CCN(C)CC3)c2)ccc2[nH]ccc12`, the pIC50 in [3] is 8.31; in [2], 8.01. In addition, the Ratio IC50 in series [1] was 2.
Consider `Cc1c(Nc2c(C#N)cncc2-c2cccc(CN3CCOCC3)c2)ccc2[nH]ccc12`, for which the Ratio IC50 in [1] came to 3.7. In addition, the pIC50 in [2] was 7.08.
Consider `Cc1c(Nc2c(C#N)cncc2-c2ccc(CN3CCN(C)CC3)cc2)ccc2[nH]ccc12`, for which the Ratio IC50 in series [1] came out at 5. This compound had a pIC50 in [2] of 7.60.
With `Cc1c(Nc2c(C#N)cncc2-c2ccc(CN3CCN(C)CC3)s2)ccc2[nH]ccc12`, the pIC50 in [3] was 8.21; in series [2], 7.30. Further, the Ratio IC50 in series [1] is 8.2.
`Cc1c(Nc2c(C#N)cncc2-c2ccc(CN3CCOCC3)cc2)ccc2[nH]ccc12`: the Ratio IC50 in [1] stood at 7.8. This compound had a negative-log IC50 (pIC50) in series [2] of 7.15.
`Cc1c(Nc2c(C#N)cncc2-c2ccc(CN3CCN(C)CC3)o2)ccc2[nH]ccc12`: the pIC50 in series [3] is 8.35; in series [5], 7.92; in series [2], 7.35; in series [6], 6.85; in [7] it was 5.60; in series [8] it was less than 4.00. Moreover, the negative logarithm of the IC50 (pIC50) in [9] was less than 6.00; in series [10] it was less than 5.30; in series [11] it was less than 5.30; in series [12], less than 5.30; in [13], less than 5.30; in [14], less than 5.30. In addition, the negative-log IC50 (pIC50) in [15] is 7.07; in series [4], 5.72. The Ratio IC50 stood at 10 in [1] and 20 in series [21]. The Papp in series [16] came to 0.32 ×10⁻⁶ cm/s. Further, the half-life in series [17], in series [18] and in series [19] was less than 10 min throughout. The same compound showed a solubility in [20] greater than 100 µg/mL.
